For 25 compounds, IC50 results are on record in patent US20240174690A1, “ANNULATED 2-AMINO-3-CYANO THIOPHENES AND DERIVATIVES FOR THE TREATMENT OF CANCER” (BOEHRINGER INGELHEIM INTERNATIONAL GMBH, priority 2021, published 2024).

In one assay the test system is SAS cells. In words: SAS CTG proliferation assay (120 h) (HNSCC, wt amplified). It counts as cell-based. A digest of the protocol:
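SAS cells plated at 300 per well in DMEM:F12 with 10% FCS and left overnight, then given compounds acoustically. After 120 h exposure, viability read by CellTiter-Glo as percent of DMSO control. IC50 from four-parameter non-linear regression.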

Assay [1] concerns KRAS G12D-dependent Ba/F3 cells. In words: Ba/F3 proliferation assay, KRAS G12D. It counts as cell-based. To be noted: AlamarBlue. The essentials:
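Ba/F3 cells retrovirally transduced with KRAS G12 mutants, puromycin-selected and grown without IL-3, so proliferation depends on the mutant KRAS. Compounds tested in technical duplicates; viability read by AlamarBlue fluorescence, with curve fitting for potency.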
A general note: The colour change of resazurin is a common sign of viable cells or microbes.

In another assay the target is KRAS (G12D)::SOS1 (Homo sapiens (Human), UniProt P01116, G12D). In words: KRAS::SOS1 AlphaScreen binding assay, KRAS G12D. The essentials:
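AlphaScreen measurement of compound disruption of biotinylated, GDP-loaded KRAS 1-169 (10 nM; G12C 7.5 nM) binding to GST-SOS1 564-1049 (5 nM with G12D/G12C, 10 nM otherwise), with 10 μM GDP in PBS/0.1% BSA/0.05% Tween 20. Timing was 30 min compound preincubation, then 60 min with beads at room temperature; top concentration 100 μM, 4-parameter IC50.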

KRAS (G12D)::SOS1, sequence (P01116 other isoform, or with tags, fused parts or gaps G12D): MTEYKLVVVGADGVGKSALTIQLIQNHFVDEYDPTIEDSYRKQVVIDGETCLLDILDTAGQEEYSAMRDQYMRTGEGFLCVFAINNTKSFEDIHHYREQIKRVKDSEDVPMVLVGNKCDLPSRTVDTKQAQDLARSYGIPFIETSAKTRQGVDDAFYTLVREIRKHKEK

The term IC50 denotes the concentration that inhibits the measured activity by half. `CCN1CCN(c2cc(O[C@@H](C)[C@@H]3C[C@@H](F)CN3C)nc(-c3noc4c3CCC[C@@]43CCCc4sc(N)c(C#N)c43)n2)CC12CC2` [II-185]: the IC50 with SAS cells was determined as 2420 nM; in assay [1] (Mus musculus, BaF3, 72 h), 47 nM; on KRAS (G12D)::SOS1 it was 1 nM.
For `CO[C@H]1CCN(C)[C@@H]1[C@H](C)Oc1cc(N2CCN(C)C3(CC3)C2)nc(-c2noc3c2CCC[C@@]32CCCc3sc(N)c(C#N)c32)n1` [II-186], the IC50 amounted to 532 nM with SAS cells; 12 nM in assay [1] (Mus musculus, BaF3, 72 h); 1 nM on KRAS (G12D)::SOS1.
The like results for `CO[C@@H]1C[C@@H]([C@H](C)Oc2cc(N3CCNC4(CC4)C3)nc(-c3noc4c3CCC[C@@]43CCCc4sc(N)c(C#N)c43)n2)N(C)C1` [II-187] were, in that order, 1150 nM, 3 nM and 1 nM.
The like results for `C[C@H](Oc1cc(-n2ccc(C3(O)COC3)n2)nc(-c2noc3c2CCC[C@@]32CCCc3sc(N)c(C#N)c32)n1)[C@@H]1CCCN1C` [II-189] were, in that order, 51 nM, 28 nM and 2 nM.
The like results for `C[C@H](NC(=O)c1ccn(-c2cc(O[C@@H](C)[C@@H]3CCCN3C)nc(-c3noc4c3CCC[C@@]43CCCc4sc(N)c(C#N)c43)n2)n1)c1ccccn1` [II-191] were, in that order, 10 nM, 11 nM and 1 nM.
Consider `C[C@H](Oc1cc(-n2ccc(C(=O)N[C@@H]3CCOC3)n2)nc(-c2noc3c2CCC[C@@]32CCCc3sc(N)c(C#N)c32)n1)[C@@H]1CCCN1C` [II-192], for which the IC50 turned out to be 25 nM with SAS cells; 13 nM in assay [1] (Mus musculus, BaF3, 72 h); 1 nM on KRAS (G12D)::SOS1.
In the case of `C[C@H](Oc1cc(-n2ccc(C(=O)N[C@H]3CCOC3)n2)nc(-c2noc3c2CCC[C@@]32CCCc3sc(N)c(C#N)c32)n1)[C@@H]1CCCN1C` [II-193], the IC50 in the assay with SAS cells was 10 nM; in assay [1] (72 h), 9 nM; on KRAS (G12D)::SOS1, 1 nM.
Take `C[C@H](Oc1cc(-n2ccc(C(=O)N(C)C3COC3)n2)nc(-c2noc3c2CCC[C@@]32CCCc3sc(N)c(C#N)c32)n1)[C@@H]1CCCN1C` [II-194]: the IC50 with SAS cells turned out to be 37 nM; in assay [1] (Mus musculus, BaF3, 72 h), 22 nM; at KRAS (G12D)::SOS1, 1 nM.
The like results for `COCCNC(=O)c1ccn(-c2cc(O[C@@H](C)[C@@H]3CCCN3C)nc(-c3noc4c3CCC[C@@]43CCCc4sc(N)c(C#N)c43)n2)n1` [II-195] were, in that order, 37 nM, 14 nM and 1 nM.
`CO[C@H]1CCN(C)[C@@H]1[C@H](C)Oc1cc(-n2ccc(C(=O)N[C@@H](C)c3ccccn3)n2)nc(-c2noc3c2CCC[C@@]32CCCc3sc(N)c(C#N)c32)n1` [II-196]: the IC50 with SAS cells turned out to be 9 nM; in assay [1] (Mus musculus, BaF3, 72 h) it was 9 nM; on KRAS (G12D)::SOS1 it was 1 nM.
Regarding `CO[C@H]1CCN(C)[C@@H]1[C@H](C)Oc1cc(-n2ccc(C(=O)N[C@@H]3CCOC3)n2)nc(-c2noc3c2CCC[C@@]32CCCc3sc(N)c(C#N)c32)n1` [II-197], the half-maximal inhibitory concentration (IC50) in the assay with SAS cells turned out to be 8 nM; in assay [1] (Mus musculus, BaF3, 72 h), 6 nM; on KRAS (G12D)::SOS1, 1 nM.
For `CO[C@H]1CCN(C)[C@@H]1[C@H](C)Oc1cc(-n2ccc(C(=O)N[C@H]3CCOC3)n2)nc(-c2noc3c2CCC[C@@]32CCCc3sc(N)c(C#N)c32)n1` [II-198] the same measures were 8 nM, 4 nM and 1 nM.
For `CO[C@H]1CCN(C)[C@@H]1[C@H](C)Oc1cc(-n2ccc(C(=O)N(C)C3COC3)n2)nc(-c2noc3c2CCC[C@@]32CCCc3sc(N)c(C#N)c32)n1` [II-199] the same measures were 17 nM, 16 nM and 1 nM.
With `COCCNC(=O)c1ccn(-c2cc(O[C@@H](C)[C@@H]3[C@@H](OC)CCN3C)nc(-c3noc4c3CCC[C@@]43CCCc4sc(N)c(C#N)c43)n2)n1` [II-200], the IC50 in the assay on SAS cells came to 8 nM; in assay [1] (Mus musculus, BaF3, 72 h) it was 8 nM; at KRAS (G12D)::SOS1 it was 1 nM.
As for `CO[C@H]1CCN(C)[C@@H]1[C@H](C)Oc1cc(-n2ccc(C(N)=O)n2)nc(-c2noc3c2CCC[C@@]32CCCc3sc(N)c(C#N)c32)n1` [II-201], the IC50 with SAS cells was 20 nM; in assay [1] (Mus musculus, BaF3, 72 h), 18 nM; at KRAS (G12D)::SOS1 it was 2 nM.
Consider `C[C@H](Oc1cc(-n2cc3ccn([C@H]4CCOC4)c(=O)c3n2)nc(-c2noc3c2CCC[C@@]32CCCc3sc(N)c(C#N)c32)n1)[C@@H]1CCCN1C` [II-202], for which the concentration for half-maximal inhibition (IC50) with SAS cells stood at 21 nM; in assay [1] (Mus musculus, BaF3, 72 h) it was 56 nM; at KRAS (G12D)::SOS1, 1 nM.
For `C[C@H](Oc1cc(-n2cc3ccn([C@@H]4CCOC4)c(=O)c3n2)nc(-c2noc3c2CCC[C@@]32CCCc3sc(N)c(C#N)c32)n1)[C@@H]1CCCN1C` [II-203] the same measures were 18 nM, 59 nM and 2 nM.
Regarding `C[C@H](Oc1cc(-n2cc3ccn(C[C@H]4CCOC4)c(=O)c3n2)nc(-c2noc3c2CCC[C@@]32CCCc3sc(N)c(C#N)c32)n1)[C@@H]1CCCN1C` [II-204], the IC50 turned out to be 17 nM in the assay with SAS cells; 62 nM in assay [1] (Mus musculus, BaF3, 72 h); 2 nM at KRAS (G12D)::SOS1.
The like results for `C[C@H](Oc1cc(-n2cc3ccn([C@@H](C)c4ccccn4)c(=O)c3n2)nc(-c2noc3c2CCC[C@@]32CCCc3sc(N)c(C#N)c32)n1)[C@@H]1CCCN1C` [II-205] were, in that order, 20 nM, 85 nM and 8 nM.
For `C[C@H](Oc1cc(-n2cc3ccn(C4CCOCC4)c(=O)c3n2)nc(-c2noc3c2CCC[C@@]32CCCc3sc(N)c(C#N)c32)n1)[C@@H]1CCCN1C` [II-206] the same measures were 25 nM, 63 nM and 1 nM.
The like results for `[2H]C([2H])([2H])N1C[C@H](F)C[C@H]1[C@H](C)Oc1cc(N2CCN(C([2H])([2H])[2H])C3(CC3)C2)nc(-c2noc3c2CCC[C@@]32CCCc3sc(N)c(C#N)c32)n1` [II-207] were, in that order, 1080 nM, 18 nM and 1 nM.
Turning to `C[C@H](Oc1cc(-n2ccc(-c3cn(C4CCOCC4)nn3)n2)nc(-c2noc3c2CCC[C@@]32CCCc3sc(N)c(C#N)c32)n1)[C@@H]1CCCN1C` [II-210], the IC50 with SAS cells was determined as 14 nM; in assay [1] (Mus musculus, BaF3, 72 h) it was 23 nM; on KRAS (G12D)::SOS1, 1 nM.
For `C[C@H](Oc1cc(-n2ccc(-c3cn([C@@H]4CCOC4)nn3)n2)nc(-c2noc3c2CCC[C@@]32CCCc3sc(N)c(C#N)c32)n1)[C@@H]1CCCN1C` [II-211] the same measures were 17 nM, 28 nM and 1 nM.
The like results for `C[C@H](Oc1cc(-n2ccc(-c3cn([C@H]4CCOC4)nn3)n2)nc(-c2noc3c2CCC[C@@]32CCCc3sc(N)c(C#N)c32)n1)[C@@H]1CCCN1C` [II-212] were, in that order, 19 nM, 10 nM and 1 nM.
For `C[C@H](Oc1cc(-n2ccc(-c3cn(CC4(C)COC4)nn3)n2)nc(-c2noc3c2CCC[C@@]32CCCc3sc(N)c(C#N)c32)n1)[C@@H]1CCCN1C` [II-213] the same measures were 13 nM, 43 nM and 1 nM.
